Consider two molecules from patent publication US8466311B2, “Neuroprotective compositions and methods” (Sanford-Burnham Medical Research Institute, priority 2006, dated 2013).

Structures are written as SMILES.

One series concerns caspase-3. The experiment in a line: NMDA-induced caspase-3 activation. In kind it is cell-based, rat. The settings on record: NEPP11 1 μM. From the text: Indeed, we found this to be the case.
In series [1] the test system is HO-1 protein. The experiment in a line: Induction of HO-1 protein in HT22 cells (Western blot). Type of series: cell-based. The note with it: 24 h, at NEPP concentration that prevented neuronal cell death.
Method: HT22 cells (Satoh et al., Eur. J. Neurosci. 17:2249-2255, 2003; Satoh et al., J. Neurochem. 77:50-62, 2001; Sagara et al., J. Biol. Chem. 277:36204-36215, 2002) and primary cortical neurons (Bonfoco et al., Proc. Natl. Acad. Sci. USA 92:7162-7166, 1995) were cultured as described.
Thereafter, cell lysates (10 μg per lane) were subjected to SDS-PAGE and probed with anti-HO-1 or anti-β-actin.
In series [2] the test system is HO-1 protein. As to the kind of experiment: Induction of HO-1 protein in primary cortical cultures. In kind it is cell-based, rat. On the procedure: Immunoprecipitation, western blots, and immunofluorescence. These assays were performed as described (Gu et al., Science 297:1186-1190, 2002) by using the following antibodies: anti-HO-1 (SPA895, 1:1000, Santa Cruz Biotechnology), anti-Keap1 (1:100, Santa Cruz Biotechnology), or anti-actin (1:5,000, Oncogene Research Products, San Diego).
We reasoned that if, unlike other electrophiles (Kraft et al., J. Neurosci. 24:1101-1112, 2004), NEPPs accumulate predominantly in neurons, then HO-1 might be induced preferentially in this cell type. To check this possibility, we performed immunofluorescence studies with anti-HO-1 antibody after exposure to a potent NEPP compound. Cortical cultures (E17 and DIV14-21) treated with vehicle or NEPP11 (0.7 μM) were stained with anti-MAP-2 and anti-HO-1 and with Hoechst dye. In control cultures, non-neuronal cells expressed relatively more HO-1 at baseline than did neurons. […] To examine induction of HO-1 protein after exposure to NEPP, lysates (10 μg per lane) of primary cortical cultures treated with vehicle or NEPP11 for 24 h were probed with anti-HO-1 or anti-β-actin in immunoblots. […] The fold induction of HO-1 by NEPP11 was 2.2±0.25 (for 0.5 μM NEPP11) and 3.5±0.25 (for 1.0 μM NEPP11 as assessed by densitometry.
Cell Cultures, Transfection, and Glutathione (GSH) Measurement.

The test system of a further series is ARE core element. As to the kind of experiment: ARE core element luciferase reporter (pAREluc) in HT22 cells. In kind it is cell-based. The protocol:
Cell cultures, transfection, and glutathione (GSH) measurement. […] Transfection was performed with Lipofectamine 2000 (Invitrogen). In the reporter gene assays, firefly luciferase activity in cell lysates was measured with a luminometer (Promega). Total GSH (reduced and oxidized) was determined as described (Lee et al., Biochem. Biophys. Res. Commun. 280:286-292, 2001).
The E1 and E2 enhancer sites in the H0-1 promoter each contain an ARE. […] Biol. 24:36-45, 2004; Gong et al., Antioxid. Redox Signal. 4:249-257, 2002). Because NEPP compounds have an electrophilic carbon at position #11 and can bind cysteine residues of cellular proteins, we studied this pathway of ARE activation. To provide direct evidence that NEPP11 could activate the H0-1 enhancer through an ARE, we studied transcriptional activation of a wild-type ARE core element (pAREluc) and a mutated form (pGC-AREIuc) (Lee et al., Biochem, Biophys. Res. Commun. 280:286-292, 2001). cDNA constructs represented wild-type
(Kraft et al., J. Neurosci. 24:1101-1112, 2004).
In general terms: Reporter assays use an easily measured gene product as a stand-in for the process of interest.

The subject of a further series is ETS-binding site. As to the kind of experiment: Enhancer element luciferase reporter p3xETSluc. Type of series: cell-based. The settings on record: NEPP11 2 μM. On the procedure: (§1) Because the E1 and E2 regions also contain other enhancer elements, we tested the effects of NEPP11 (2 μM) on the expression of luciferase activity derived from these elements, including the cAMP-responsive element (CRE; p3xCREluc), AP-1 binding site (p3xAP1luc), NF-κB binding site (p3xNF-κBluc), NFAT-binding site (p3xNFATluc), ETS-binding site (p3xETSluc), and MEF2-binding site (p3xMEF2luc).

The next series deals with NFAT-binding site. The experiment in a line: Enhancer element luciferase reporter p3xNFATluc. In kind it is cell-based. The note with it: NEPP11 2 μM. On the procedure: as §1
A further series relates to MEF2-binding site. The experiment in a line: Enhancer element luciferase reporter p3xMEF2luc. Type of series: cell-based. The note with it: NEPP11 2 μM. The protocol:
as §1

In a further series the test system is Nrf2-GFP fusion protein. As to the kind of experiment: Localization of Nrf2-GFP fusion protein in transfected HT22 cells. Type of series: cell-based. The settings on record: NEPP11 2 μM, 24 h. The protocol: Activation of the Keap1/Nrf2 pathway by NEPP compounds in a neuronal cell line. Next, we examined the localization of an Nrf2-Green Fluorescent Protein (GFP) fusion protein (Numazawa et al., Am. J. Physiol. 285:C334-C342, 2003) in transfected HT22 cells. HT22 cells transfected with pNrf2-GFP were treated with vehicle or NEPP11 (2 μM) for 24 h and observed under epifluorescence microscopy. […] Thus we hypothesized that nuclear levels of Nrf2 protein should increase when cells are exposed to an electrophile such as NEPP, which promotes nuclear translocation. To test this hypothesis, cytosolic and nuclear fractions (200 μg protein) from cells that had been treated with vehicle or 2 μM NEPP11 for 24 h were precipitated and probed with anti-Nrf2 antibody and with anti-NeuN, a neuronal-specific nuclear protein. Indeed, we confirmed this hypothesis.

A further series concerns NF-κB binding site. The experiment in a line: Enhancer element luciferase reporter p3xNF-κBluc. In kind it is cell-based. The note with it: NEPP11 2 μM. On the procedure: as §1
The test system of a further series is neural cells. The experiment in a line: Neuroprotection and toxicity of CA in vitro (summary statements). In kind it is cell-based.
Series [3] in a line: Translocation of CA into the brain (HPLC of serum and brain). Type of series: in vivo, mouse. The protocol:
Translocation of CA into the brain detected by high-performance liquid chromatography (HPLC). For experiments testing penetration of drug into the CNS, we used adult male C57BL/6 mice (Charles River) weighing 22-26 g. The mice were kept in cages with ad libitum access to food and water under standardized housing conditions (natural light-dark cycle, temperature of 23±3° C., relative humidity of 50±10%). After a seven-day adaptation to laboratory conditions, the animals were randomly assigned to each experimental group (n=10 mice each). Four C57 BL/6 mice, fastened for 18 h, were each orally administered 3 mg of CA in 0.3 ml olive oil. One and three h after the injection, under ether anesthesia, serum and brain were isolated for chemical analysis. CA was extracted from tissue with acetonitrile and ethanol. CA levels were obtained by HPLC (column, μBondasphere C18; temperature, 40 C; HPLC system, Shimadzu [Kyoto, Japan] LC10Avp; detector, UV 230 nm; running solvent 2% acetic acid or acetonitrile, 30% B isocratic at 1 ml/min).
CA accumulation in the brain. For the development of CA as a protective agent against neurodegenerative diseases, penetration into the brain is an essential requirement. To examine this aspect, we administered CA orally to mice (3 mg per 25 g mouse) and measured the level of CA (catechol-form) in serum and brain parenchyma by HPLC.

For `COC(=O)CCCCC/C=C1/C(=O)C=C[C@H]1CCCCCCc1ccc(C)cc1` [NEPP11], the “NMDA-induced caspase-3 activation” value in the series on caspase-3 is recorded as “inhibited”. Also, the “HO-1 protein levels over baseline” value with HO-1 protein [1] is given as “approximately five-fold”. For the same molecule, the “fold induction of HO-1 (densitometry)” value in the series on HO-1 protein [2] (0.5 μM NEPP11, 24 h) is 2.2±0.25 fold; in the series with HO-1 protein [2] (1.0 μM NEPP11, 24 h), 3.5±0.25 fold. Also, the HO-1 immunofluorescence result in the series with HO-1 protein [2] (NEPP11 0.7 μM, E17 DIV14-21) is “increased mainly in neurons”. For the same molecule, the “mutant ARE (pGC-AREluc) transcriptional activity” value in the series on ARE core element is listed as “unaffected”. In addition, the “wild-type ARE (pAREluc) transcriptional activity” value with ARE core element (dose-dependent) is on record as “up to seven-fold”. The “activity of p3xETSluc” value in the series on ETS-binding site is listed as “slightly depressed”. For the same molecule, in the series on NFAT-binding site, the “activity of p3xNFATluc” value is “slightly depressed”. Moreover, the “activity of p3xMEF2luc” value with MEF2-binding site is “no effect”. The “localization of Nrf2-GFP” value in the series on Nrf2-GFP fusion protein is given as “translocated into the nucleus”. The p3xNF-κBluc expression entry in the series on NF-κB binding site was “minimally activated”.

Regarding `CC(C)c1cc2c(c(O)c1O)[C@@]1(C(=O)O)CCCC(C)(C)[C@@H]1CC2` [CA, carnosic acid], the “toxicity in vitro relative to NEPP11” value with neural cells is reported as “less toxic than NEPP11”. In addition, the “toxicity to neural cells” value in the series on neural cells (100 μM CA) is “not toxic”. Besides, in the series with neural cells (as little as), the neuroprotective concentration is listed as 1-3. Besides, the brain permeability result in series [3] (mouse, in vivo) is reported as “brain permeable”. The “time to reach significant levels in the brain” value in series [3] (oral, 3 mg per 25 g mouse) is at most 1 h.
